Test results: patent US20240209353A1, “NADK2 INHIBITION IN CANCER AND FIBROTIC DISORDERS” (Memorial Sloan-Kettering Cancer Center, priority 2021, published 2024)
Where two headings read alike, the source gives them in different places.

Columns and labels:
DLD1 and T47D cells = experiment: Cell death quantification (ferroptosis sensitivity); assay type: cell-based
Method: Cells were seeded in 96-well plates at appropriate cell densities (DLD1: 10000 cells/well, T47D: 15000 cells/well), and incubated overnight at 37° C. containing 5% CO2. Contact-inhibited MEFs were seeded in 24-well plates and incubated as described above. Cell were then subjected to treatments as described in figures. Cells were stained with Hoechst 33342 (0.1 μg/ml) to monitor total cell number, and with Sytox Green (5 nM) to monitor cell death. Culture plates were read by Cytation 5 at indicated time point. Percentage of cell death was calculated as Sytox Green-positive cell number over total cell number.

[1] = test system: DLD1, T47D and HaCaT cells; experiment: Western blot: GSH synthesis enzymes, peroxiredoxin oxidation; assay type: cell-based, human; settings: 100 μM MitoPQ, 24 hours; similar extent in cells lacking NADK2 and control cells
Source text: Protein was then transferred to nitrocellulose membrane for immunoblotting.

MEFs [2] = settings: proline supplementation to the medium
Method: In brief, confluent MEFs were grown for two days on plates coated with 0.1% gelatin in the presence of 50 μM ascorbate (Sigma, A4034) in the indicated medium. Plates were decellularized with 20 mM ammonium hydroxide/0.5% Triton X-100 for 5 min on a rotating platform. Three times the volume of PBS was added, and ECM was equilibrated overnight at 4° C., followed by four additional PBS washes. To measure collagen abundance, extracted ECM was stained with the Picro Sirius Red Stain Kit (Abcam, ab150681) according to the manufacturer's instructions. The stain was extracted with 0.1 M NaOH, and optical density was measured at 550 nm using a microplate reader. Values were normalized to the packed cell volume of cells grown on a separate plate under the same experimental conditions.

NIH-3T3 cells = settings: 0.15 mM proline in culture medium
Method: (§1) Cells were lysed in RIPA lysis buffer (Millipore 20-188) supplemented with protease inhibitors (Thermo Fisher, 78428). Protein concentration was determined by BCA protein assay (Thermo Fisher, 23228), following which equal amount of protein was loaded and separated in polyacrylamide gels. Protein was then transferred to nitrocellulose membrane for immunoblotting.

MEFs [3] = settings: 300 μM proline added to culture medium
Method: as §1

[4] = test system: T47D, MCF10A, HaCaT and DLD1 cells; experiment: Cell proliferation (cell number fold change); assay type: cell-based, human; settings: supplements at concentrations present in DMEM/F12
Method: FIGS. 3A-3B show cell proliferation measured as cell number fold change (Day 4/Day 0) of T47D cells treated with sgCtrl, sgNADK2-1, or sgNADK2-2, cultured in the indicated medium and supplementation. “LA” is lipoic acid. “Pyr” is pyruvate. “Cu” is cupric sulfate. “Zn” is zinc sulfate. “B12” is vitamin B12. “A” is alanine. “D” is aspartate. “N” is asparagine. “E” is glutamate, and “P” is proline. All supplements were added at the concentrations present in DMEM/F12. […] FIGS. 3D-3F show a Western blot (FIG. 3D), proline abundance measured by GC-MS (FIG. 3E), and cell proliferation (FIG. 3F) of DMEM-cultured T47D cells treated with sgCtrl or sgNADK2-2 and ectopically expressing vector or NADK2 cDNA resistant to sgNADK2-2 mediated CRISPR-Cas9 genome editing. FIGS. 3G-3I show a Western blot (FIG. 3G), proline abundance measured by GC-MS (FIG. 3H), and cell proliferation (FIG. 3I) of DMEM-cultured T47D cells treated with sgCtrl, sgNADK2-1, or sgNADK2-2 and ectopically expressing vector or the POS5 cDNA. All error bars represent mean+SD, n=3. In FIGS. 3A-3C, 3H, and 3I, one-way ANOVA was performed. In FIGS. 3E and 3F, a two-sided t-test was performed with Welch's correction. ** P<0.01; *** P<0.001; n.s., P>0.05.
FIGS. 8D-8H show cell proliferation measured as cell number fold change of the indicated cells with sgCtrl, sgNADK2-1, or sgNADK2-2, cultured in the indicated medium and supplementation. […]

Structure (SMILES): CCOc1ccccc1-n1c(C(C)N2CCN(C(=O)COc3ccc(Cl)cc3)CC2)nc2ccccc2c1=O (centres unmarked) [Erastin]
- cell death of cells lacking NADK2 upon ferroptosis inducer (DLD1 and T47D cells): no increase in cell death

Structure (SMILES): C[n+]1ccc(-c2cc[n+](CCCCCCCCCC[P+](c3ccccc3)(c3ccccc3)c3ccccc3)cc2)cc1.[I-].[I-].[I-] [MitoParaquat]
- expression of enzymes involved in GSH synthesis [1]: increased

Structure (SMILES): O=C(O)[C@@H]1CCCN1 [proline, L-proline]
- collagen secretion of fibroblasts lacking NADK2 upon supplementation (MEFs [2]): rescued
- expression of collagen protein in P5CS-deleted cells upon proline addition (NIH-3T3 cells): restored
- ATF4 accumulation in cells lacking NADK2 (MEFs [3]): blunted
- collagen expression in cells lacking NADK2 (MEFs [3]): restored
- growth of cells lacking NADK2 in DMEM upon supplementation [4]: necessary and sufficient to restore proliferation

Structure (SMILES): COC(=O)c1ccc([C@@H]2c3[nH]c4ccccc4c3C[C@@H](C(=O)OC)N2C(=O)CCl)cc1 [RSL3]
- cell death of cells lacking NADK2 upon ferroptosis inducer (DLD1 and T47D cells; vs control cells, 24 or 48 hours): no increase in cell death
